Measured values: patent US20070049593A1 (priority 2004, published 2007)
Structures can show the parent of a compound that is named as a salt.

Molecular target: T1, HCV polymerase (Hepatitis C virus genotype 1b, UniProt P26663)
T1 construct: a region encoding NS5B (J Virol 1991 March, 65(3), 1105-13, 544 amino acids after deletion of 47 amino acids on the C-terminal); 6xHis (C); made in house; host or cells: Escherichia coli
Experiment: biochemical
Design: species or system HCV BK strain
How it was run: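 His-tagged NS5B (BK strain, 47-aa C-terminal deletion, E. coli-expressed) at 0.5 μg/ml copied 5 μg/ml run-off RNA bearing the HCV 3′ UTR with 2 μM UTP plus [3H]UTP, 50 μM ATP/GTP, in pH 7.5 Tris with 5 mM MgCl2, 25 °C, 90 min. TCA-precipitated RNA was counted and IC50 calculated.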

T1 sequence (P26663 2420-2963): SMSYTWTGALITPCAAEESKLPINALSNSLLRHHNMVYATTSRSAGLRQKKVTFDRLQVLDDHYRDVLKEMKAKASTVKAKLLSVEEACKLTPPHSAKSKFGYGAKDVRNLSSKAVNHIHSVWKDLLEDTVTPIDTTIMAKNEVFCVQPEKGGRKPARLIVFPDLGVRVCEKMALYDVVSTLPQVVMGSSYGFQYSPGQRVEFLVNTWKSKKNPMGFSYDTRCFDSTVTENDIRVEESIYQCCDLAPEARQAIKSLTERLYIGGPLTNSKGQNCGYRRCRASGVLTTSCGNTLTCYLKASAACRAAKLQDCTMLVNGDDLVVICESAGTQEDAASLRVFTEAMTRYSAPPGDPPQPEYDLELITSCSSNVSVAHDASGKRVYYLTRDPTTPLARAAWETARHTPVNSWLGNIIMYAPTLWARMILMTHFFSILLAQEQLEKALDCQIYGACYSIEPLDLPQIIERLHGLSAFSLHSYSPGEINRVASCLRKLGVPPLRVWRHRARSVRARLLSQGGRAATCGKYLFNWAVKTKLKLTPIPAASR

Compound	IC50
O=C(O)c1ccc2c(C3CCCCC3)c3n(c2c1)CCOc1c(OCCN2CCCCC2)cccc1-3 [Example 2-53, 12-cyclohexyl-4-[2-(piperidin-1-yl)ethoxy]-6,7-dihydro-5-oxa-7a-azadibenzo[a,e]azulene-9-carboxylic acid hydrochloride]	< 100 nM
O=C(O)c1ccc2c(C3CCCCC3)c3n(c2c1)CCN(CCN1CCCCCC1)c1cc(F)ccc1-3 [Example 1-234, 5-[2-(azepan-1-yl)ethyl]-13-cyclohexyl-3-fluoro-6,7-dihydro-5H-benzo[5,6][1,4]diazepino[7,1-a]indole-10-carboxylic acid dihydrochloride]	< 100 nM
O=C(O)c1ccc2c(C3CCCCC3)c3n(c2c1)CCOc1cc(OCCN2CCOC2=O)ccc1-3 [Example 2-38, 12-cyclohexyl-3-[2-(2-oxooxazolidin-3-yl)ethoxy]-6,7-dihydro-5-oxa-7a-azadibenzo[a,e]azulene-9-carboxylic acid]	< 100 nM
COc1ccc2c(c1)OCCn1c-2c(C2CCCCC2)c2ccc(C(=O)NC3(c4nc5ccc(O)cc5[nH]4)CCC3)cc21 [Example 2-439, N-[1-(6-hydroxy-1H-benzimidazol-2-yl)cyclobutyl]-12-cyclohexyl-3-methoxy-6,7-dihydro-5-oxa-7a-azadibenzo[a,e]azulene-9-carboxamide]	< 100 nM
CCN1CCC(CCN2CCn3c(c(C4CCCCC4)c4ccc(C(=O)O)cc43)-c3ccc(Cl)cc32)CC1 [Example 1-243, 3-chloro-13-cyclohexyl-5-[2-(1-ethylpiperidin-4-yl)ethyl]-6,7-dihydro-5H-benzo[5,6][1,4]diazepino[7,1-a]indole-10-carboxylic acid dihydrochloride]	< 100 nM
CN(C)C(=O)c1ccc(NC(=O)C(C)(C)NC(=O)c2ccc3c(C4CCCCC4)c4n(c3c2)CCOc2ccccc2-4)cc1 [Example 2-194, N-[1-(4-dimethylcarbamoylphenylcarbamoyl)-1-methylethyl]-12-cyclohexyl-6,7-dihydro-5-oxa-7a-azadibenzo[a,e]azulene-9-carboxamide]	< 100 nM
COc1ccc2c(c1)OCCn1c-2c(C2CCCCC2)c2ccc(C(=O)NC3(C(=O)Nc4ccc(C(C)(C)C(=O)O)cc4)CCC3)cc21 [Example 2-406, 2-[4-({1-[(12-cyclohexyl-3-methoxy-6,7-dihydro-5-oxa-7a-azadibenzo[a,e]azulene-9-carbonyl)amino]cyclobutanecarbonyl}amino)phenyl]-2-methylpropionic acid]	< 100 nM
CN1CCn2c(c(C3CCCCC3)c3ccc(C(=O)O)cc32)-c2cccc(OCCN3CCCCC3)c21 [Example 1-552, 13-cyclohexyl-5-methyl-4-[2-(piperidin-1-yl)ethoxy]-6,7-dihydro-5H-benzo[5,6][1,4]diazepino[7,1-a]indole-10-carboxylic acid dihydrochloride]	< 100 nM
CS(=O)(=O)N1CCCN(CCN2CCn3c(c(C4CCCCC4)c4ccc(C(=O)O)cc43)-c3ccccc32)CC1 [Example 1-232, 13-cyclohexyl-5-[2-(4-methanesulfonyl-1,4-diazepan-1-yl)ethyl]-6,7-dihydro-5H-benzo[5,6][1,4]diazepino[7,1-a]indole-10-carboxylic acid dihydrochloride]	< 100 nM
COC(=O)NCCOc1ccc2c(c1)OCCn1c-2c(C2CCCCC2)c2ccc(C(=O)O)cc21 [Example 2-36, 12-cyclohexyl-3-[2-(methoxycarbonylamino)ethoxy]-6,7-dihydro-5-oxa-7a-azadibenzo[a,e]azulene-9-carboxylic acid]	< 100 nM
COCCN1CCn2c(c(C3CCCCC3)c3ccc(C(=O)O)cc32)-c2ccccc21 [Example 1-164, 13-cyclohexyl-5-(2-methoxyethyl)-6,7-dihydro-5H-benzo[5,6][1,4]diazepino[7,1-a]indole-10-carboxylic acid monohydrochloride]	< 100 nM
CCC1CCCCN1CCN1CCn2c(c(C3CCCCC3)c3ccc(C(=O)O)cc32)-c2ccc(Cl)cc21 (stereo not drawn) [Example 1-334, 3-chloro-13-cyclohexyl-5-[2-(2-ethylpiperidin-1-yl)ethyl]-6,7-dihydro-5H-benzo[5,6][1,4]diazepino[7,1-a]indole-10-carboxylic acid dihydrochloride]	< 100 nM
CCN1CCN(C(=O)CN2CCn3c(c(C4CCCCC4)c4ccc(C(=O)O)cc43)-c3ccc(F)cc32)CC1 [Example 1-162, 13-cyclohexyl-5-[2-(4-ethylpiperazin-1-yl)-2-oxoethyl]-3-fluoro-6,7-dihydro-5H-benzo[5,6][1,4]diazepino[7,1-a]indole-10-carboxylic acid dihydrochloride]	< 100 nM
CCOc1ccc2c(c1)OCCn1c-2c(C2CCCCC2)c2ccc(C(=O)NC3(C(=O)Nc4ccc(/C=C/C(=O)O)cc4)CCC3)cc21 [Example 2-446, (E)-3-[4-({1-[(12-cyclohexyl-3-ethoxy-6,7-dihydro-5-oxa-7a-azadibenzo[a,e]azulene-9-carbonyl)amino]cyclobutanecarbonyl}amino)phenyl]acrylic acid]	< 100 nM
O=C(O)c1ccc2c(C3CCCCC3)c3n(c2c1)CCN(CCC1CCN(C2CCCC2)CC1)c1ccccc1-3 [Example 1-157, 13-cyclohexyl-5-[2-(1-cyclopentylpiperidin-4-yl)ethyl]-6,7-dihydro-5H-benzo[5,6][1,4]diazepino[7,1-a]indole-10-carboxylic acid dihydrochloride]	< 100 nM
O=C(O)CN1CCC(NC(=O)c2ccc3c(C4CCCCC4)c4n(c3c2)CCOc2ccccc2-4)(C(=O)O)CC1 [Example 2-229, 1-carboxymethyl-4-[(12-cyclohexyl-6,7-dihydro-5-oxa-7a-azadibenzo[a,e]azulene-9-carbonyl)amino]piperidine-4-carboxylic acid monohydrochloride]	< 100 nM
CC(=O)N1CCC(N(C)CCN2CCn3c(c(C4CCCCC4)c4ccc(C(=O)O)cc43)-c3ccccc32)CC1 [Example 1-279, 5-{2-[N-(1-acetylpiperidin-4-yl)-N-methylamino]ethyl}-13-cyclohexyl-6,7-dihydro-5H-benzo[5,6][1,4]diazepino[7,1-a]indole-10-carboxylic acid monohydrochloride]	< 100 nM
CN(CCN1CCn2c(c(C3CCCCC3)c3ccc(C(=O)O)cc32)-c2ccccc21)C1CCCCC1 [Example 1-231, 13-cyclohexyl-5-[2-(N-cyclohexyl-N-methylamino)ethyl]-6,7-dihydro-5H-benzo[5,6][1,4]diazepino[7,1-a]indole-10-carboxylic acid]	< 100 nM
CCC1CCCN(CCN2CCn3c(c(C4CCCCC4)c4ccc(C(=O)O)cc43)-c3ccc(C(C)C)cc32)C1 (stereo not drawn) [Example 1-341, 13-cyclohexyl-5-[2-(3-ethylpiperidin-1-yl)ethyl]-3-isopropyl-6,7-dihydro-5H-benzo[5,6][1,4]diazepino[7,1-a]indole-10-carboxylic acid dihydrochloride]	< 100 nM
O=C(O)c1ccc2c(C3CCCCC3)c3n(c2c1)CCN(CCN1CCCOCC1)c1cc(F)ccc1-3 [Example 1-170, 13-cyclohexyl-3-fluoro-5-[2-(1,4-oxazepan-4-yl)ethyl]-6,7-dihydro-5H-benzo[5,6][1,4]diazepino[7,1-a]indole-10-carboxylic acid dihydrochloride]	< 100 nM
O=C(O)c1ccc2c(C3CCCCC3)c3n(c2c1)CCN(CCN1CCCCC1)c1ccc(Cl)cc1-3 [Example 1-176, 2-chloro-13-cyclohexyl-5-[2-(piperidin-1-yl)ethyl]-6,7-dihydro-5H-benzo[5,6][1,4]diazepino[7,1-a]indole-10-carboxylic acid dihydrochloride]	< 100 nM
Cc1ccc2c(c1)N(CCC1CCCN(C(C)C)C1)CCn1c-2c(C2CCCCC2)c2ccc(C(=O)O)cc21 (stereo not drawn) [Example 1-275, 13-cyclohexyl-5-[2-(1-isopropylpiperidin-3-yl)ethyl]-3-methyl-6,7-dihydro-5H-benzo[5,6][1,4]diazepino[7,1-a]indole-10-carboxylic acid dihydrochloride]	< 100 nM
COCC1CCCN(CCN2CCn3c(c(C4CCCCC4)c4ccc(C(=O)O)cc43)-c3ccc(Cl)cc32)C1 (stereo not drawn) [Example 1-293, 3-chloro-13-cyclohexyl-5-[2-(3-methoxymethylpiperidin-1-yl)ethyl]-6,7-dihydro-5H-benzo[5,6][1,4]diazepino[7,1-a]indole-10-carboxylic acid dihydrochloride]	< 100 nM
COc1ccc(-c2cnc(C(C)(C)NC(=O)c3ccc4c(C5CCCCC5)c5n(c4c3)CCOc3ccccc3-5)[nH]2)cc1 [Example 2-307, N-{1-[5-(4-methoxyphenyl)-1H-imidazol-2-yl]-1-methylethyl}-12-cyclohexyl-6,7-dihydro-5-oxa-7a-azadibenzo[a,e]azulene-9-carboxamide]	< 100 nM
CCN(CCCN1CCn2c(c(C3CCCCC3)c3ccc(C(=O)O)cc32)-c2ccc(Cl)cc21)C(C)C [Example 1-403, 3-chloro-13-cyclohexyl-5-[3-(N-ethyl-N-isopropylamino)propyl]-6,7-dihydro-5H-benzo[5,6][1,4]diazepino[7,1-a]indole-10-carboxylic acid dihydrochloride]	< 100 nM
CS(=O)(=O)N1CCN(c2ccc(N3CCCC3=O)cc2COc2ccc3c(c2)OCCn2c-3c(C3CCCCC3)c3ccc(C(=O)O)nc32)CC1 [Example 7-7, 12-cyclohexyl-3-[2-(4-methanesulfonylpiperazin-1-yl)-5-(2-oxopyrrolidin-1-yl)benzyloxy]-6,7-dihydro-5-oxa-7a,8-diazadibenzo[a,e]azulene-9-carboxylic acid dihydrochloride]	< 100 nM
COCC1CCN(CCN2CCn3c(c(C4CCCCC4)c4ccc(C(=O)O)cc43)-c3ccccc32)CC1 [Example 1-197, 13-cyclohexyl-5-[2-(4-methoxymethylpiperidin-1-yl)ethyl]-6,7-dihydro-5H-benzo[5,6][1,4]diazepino[7,1-a]indole-10-carboxylic acid dihydrochloride]	< 100 nM
